According to patent US20260042755A1, “GPR6 INVERSE AGONISTS” (MapLight Therapeutics, Inc., priority 2022, published 2026):

What was measured:
[1] = biological target: T1, GPR3 (Homo sapiens, UniProt P46089); experiment: GPR3 antagonist functional cAMP assay (LANCE Ultra cAMP TR-FRET, CHO cells stably expressing GPR3); type: cell-based
T1 construct: expressed in transfected cells; host or cells: CHO cells
Summary of the method: (§1)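 10,000 cells/well; KRB buffer + 0.1% BSA + 150 μM Ro 20-1724; cpd 45 min, 37 °C, 0.1% DMSO; TR-FRET cAMP, 665 nm; 4-PL fit, normalized to DMSO (0.1%) and reference (100%) → IC50.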

[2] = biological target: T2, GPR6 (Homo sapiens, UniProt P46095); experiment: GPR6 antagonist functional cAMP assay (LANCE Ultra cAMP TR-FRET, CHO cells stably expressing GPR6); type: cell-based
T2 construct: expressed in transfected cells; host or cells: CHO cells
T2 sequence (P46095 whole entry): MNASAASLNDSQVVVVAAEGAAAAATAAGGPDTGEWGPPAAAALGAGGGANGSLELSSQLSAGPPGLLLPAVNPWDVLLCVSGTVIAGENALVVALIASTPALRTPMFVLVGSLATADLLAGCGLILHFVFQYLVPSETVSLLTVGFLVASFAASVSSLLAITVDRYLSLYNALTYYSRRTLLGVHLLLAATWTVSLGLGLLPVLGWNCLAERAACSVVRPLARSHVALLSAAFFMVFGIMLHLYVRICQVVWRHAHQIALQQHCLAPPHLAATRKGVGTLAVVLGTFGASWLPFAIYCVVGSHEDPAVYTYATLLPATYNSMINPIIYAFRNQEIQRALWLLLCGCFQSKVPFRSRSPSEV
Summary of the method: as §1

[3] = CHO cells stably expressing GPR3, cAMP assay
[4] = CHO cells stably expressing GPR6, cAMP assay
[5] = CHO cells stably expressing GPR3, cAMP assay (Example 24)
[6] = CHO cells stably expressing GPR6, cAMP assay (Example 24)
[7] = procedure as described in Example 24

T1 sequence (P46089 whole entry, species assumed): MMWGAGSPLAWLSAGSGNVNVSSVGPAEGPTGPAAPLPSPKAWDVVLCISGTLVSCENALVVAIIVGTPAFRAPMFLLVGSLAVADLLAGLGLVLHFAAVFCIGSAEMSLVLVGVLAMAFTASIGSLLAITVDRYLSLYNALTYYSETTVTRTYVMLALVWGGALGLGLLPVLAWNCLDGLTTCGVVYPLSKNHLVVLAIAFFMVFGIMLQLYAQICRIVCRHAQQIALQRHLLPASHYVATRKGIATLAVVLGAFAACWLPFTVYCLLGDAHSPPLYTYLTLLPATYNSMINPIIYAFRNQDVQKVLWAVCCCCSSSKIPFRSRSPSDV

IC50 ([1]; procedure of Example 24) [nM]	IC50 ([2]; procedure of Example 24) [nM]	IC50 [1, 5] [nM]	IC50 [2, 6] [nM]	Structure (SMILES)	also measured
				CC(=O)N1CCc2nc(N3CCC(Oc4ccc(C#N)cc4F)CC3)c(-c3cnn(C)c3)nc2C1 [Compound 500, 4-{1-[6-acetyl-3-(1-methyl-4-pyrazolyl)-5,6,7,8-tetrahydro-1,4,6-triaza-2-naphthyl]-4-piperidyloxy}-3-fluorobenzonitrile]	IC50 [1, 3]: 1000 to 30000 nM; IC50 [2, 4]: 1000 to 30000 nM
≥ 30000	1000 to 30000			CC(=O)N1CCc2nc(N3CCN(C(=O)c4ccc(F)cc4F)CC3)c(-c3cnn(C)c3)nc2C1 [Compound 630, 1-{2-[4-(2,4-difluorobenzoyl)-1-piperazinyl]-3-(1-methyl-4-pyrazolyl)-5,6,7,8-tetrahydro-1,4,6-triaza-6-naphthyl}-1-ethanone]	
1000 to 30000	100 to 1000			CC(C)(O)[C@@](C)(O)c1cc2nc(-c3cnn(CF)c3)c(N3CCN(Cc4ccc(F)cc4F)CC3)nc2cn1 (single isomer, unassigned) [Compound 711]	
				CC(=O)N1CCc2nc(N3CCN(C(CO)(CO)c4ccccc4F)CC3)c(-c3cnn(C)c3)nc2C1 [Compound 552, 1-(2-{4-[1-(o-fluorophenyl)-2-hydroxy-1-(hydroxymethyl)ethyl]-1-piperazinyl}-3-(1-methyl-4-pyrazolyl)-5,6,7,8-tetrahydro-1,4,6-triaza-6-naphthyl)-1-ethanone]	IC50 [1, 3]: ≥ 30000 nM; IC50 [2, 4]: 1000 to 30000 nM
		1000 to 30000	≥ 30000	CC(=O)N1CCc2nc(N3CCC(C(=O)N(C)c4ccc(F)cc4F)C3)c(-c3cnn(C)c3)nc2C1 (centres unmarked) [Compound 392, 1-[6-acetyl-3-(1-methyl-1H-pyrazol-4-yl)-5H,6H,7H,8H-pyrido[3,4-b]pyrazin-2-yl]-N-(2,4-difluorophenyl)-N-methylpyrrolidine-3-carboxamide]	
		1000 to 30000	1000 to 30000	COC[C@H]1CN(Cc2ccc(F)cc2F)CCN1c1nc2ccncc2nc1-c1cnn(C)c1 (single isomer, unassigned) [Compound 238]	
				CC(=O)N1CCc2nc(N3CCC(Oc4ccc(F)cc4F)CC3)c(-c3c(C)nn(C4CCCCO4)c3C)nc2C1 (centres unmarked) [Compound 47, 1-{2-[4-(2,4-difluorophenoxy)piperidin-1-yl]-3-[3,5-dimethyl-1-(oxan-2-yl)-1H-pyrazol-4-yl]-5H,6H,7H,8H-pyrido[3,4-b]pyrazin-6-yl}ethan-1-one]	IC50 [1, 7]: 1000 to 30000 nM; IC50 [2, 7]: 1000 to 30000 nM
		1000 to 30000	1000 to 30000	CC(=O)N1CCc2nc(N3CCC(Oc4ccc(F)cc4F)CC3)c(-c3cnn4c3CN(C(C)=O)CC4)nc2C1 [Compound 107, 1-(3-{6-acetyl-2-[4-(2,4-difluorophenoxy)piperidin-1-yl]-5H,6H,7H,8H-pyrido[3,4-b]pyrazin-3-yl}-4H,5H,6H,7H-pyrazolo[1,5-a]pyrazin-5-yl)ethan-1-one]	
1000 to 30000	100 to 1000			CC(C)(O)C(C)(O)c1cc2nc(N3CCN(Cc4ccc(F)cc4F)CC3)c(-c3cnn(C(F)F)c3)nc2cn1 (centres unmarked) [Compound 657, 2-{3-[1-(difluoromethyl)-4-pyrazolyl]-2-{4-[(2,4-difluorophenyl)methyl]-1-piperazinyl}-1,4,6-triaza-7-naphthyl}-3-methyl-2,3-butanediol]	
		1000 to 30000	100 to 1000	COCC1CC1c1nc2c(nc1N1CCC(Oc3ccc(F)cc3F)CC1)CCN(C(C)=O)C2 (centres unmarked) [Compound 463, 1-(2-(4-(2,4-difluorophenoxy)piperidin-1-yl)-3-(2-(methoxymethyl)cyclopropyl)-7,8-dihydropyrido[3,4-b]pyrazin-6(5H)-yl)ethan-1-one]	
1000 to 30000	≥ 30000			CC(=O)N1CCc2nc(N3CCCC(Oc4ccccc4)C3)c(-c3cnn(C)c3)nc2C1 (centres unmarked) [Compound 335, 1-[3-(1-methyl-1H-pyrazol-4-yl)-2-(3-phenoxypiperidin-1-yl)-5H,6H,7H,8H-pyrido[3,4-b]pyrazin-6-yl]ethan-1-one]	
		1000 to 30000	100 to 1000	Cn1cc(-c2nc3cnc([C@@H](O)C(C)(C)O)cc3nc2N2CCN(Cc3ccc(F)cc3F)CC2)cn1 (single isomer, unassigned) [Compound 261]	
		1000 to 30000	100 to 1000	CCn1ccc(-c2nc3c(nc2N2CCC(Oc4ccc(F)cc4F)CC2)CCN(C(C)=O)C3)n1 [Compound 448, 1-{2-[4-(2,4-difluorophenoxy)piperidin-1-yl]-3-(1-ethyl-1H-pyrazol-3-yl)-5H,6H,7H,8H-pyrido[3,4-b]pyrazin-6-yl}ethan-1-one]	
				CC(=O)N1CCc2nc(N3CCN(Cc4ccsc4)CC3)c(-c3cnn(C)c3)nc2C1 [Compound 514, 1-[3-(1-methyl-4-pyrazolyl)-2-{4-[(3-thienyl)methyl]-1-piperazinyl}-5,6,7,8-tetrahydro-1,4,6-triaza-6-naphthyl]-1-ethanone]	IC50 [1, 3]: 1000 to 30000 nM; IC50 [2, 4]: 1000 to 30000 nM
1000 to 30000	100 to 1000			CC(C)(O)C(C)(O)c1cc2nc(-c3cnn(CF)c3)c(N3CCC(Oc4ccc(F)cc4F)CC3)nc2cn1 (single isomer, unassigned) [Compound 782]	
1000 to 30000	100 to 1000			CC(C)(O)[C@H](O)c1cc2nc(-c3cnn(C(F)F)c3)c(N3CCN(Cc4ccccc4F)CC3)nc2cn1 (single isomer, unassigned) [Compound 685]	

IC50 ([1]; procedure of Example 24) [nM]	IC50 ([2]; procedure of Example 24) [nM]	IC50 [1, 5] [nM]	IC50 [2, 6] [nM]	Structure (SMILES)	also measured
		1000 to 30000	≥ 30000	COc1cccnc1-c1nc2c(nc1N1CCC(Oc3ccc(F)cc3F)CC1)CCN(C(C)=O)C2 [Compound 80, 1-{2-[4-(2,4-difluorophenoxy)piperidin-1-yl]-3-(3-methoxypyridin-2-yl)-5H,6H,7H,8H-pyrido[3,4-b]pyrazin-6-yl}ethan-1-one]	
100 to 1000	< 100			CC(=O)N1CCc2nc(N3CCC([C@H](F)c4ccc(F)cc4F)CC3)c(-c3cnn(C)c3)nc2C1 (single isomer, unassigned) [Compound 658]	
1000 to 30000	100 to 1000			COC[C@@H](O)c1cc2nc(N3CCC(Oc4ccc(F)cc4F)CC3)c(-c3cnn(C)c3)nc2cn1 (single isomer, unassigned) [Compound 642]	
		1000 to 30000	< 100	CC(C)(O)C(O)c1cc2nc(N3CCN(Cc4ccc(F)cc4F)CC3)c(-c3cnn(C(F)F)c3)nc2cn1 (centres unmarked) [Compound 264, 1-{3-[1-(difluoromethyl)-1H-pyrazol-4-yl]-2-{4-[(2,4-difluorophenyl)methyl]piperazin-1-yl}pyrido[3,4-b]pyrazin-7-yl}-2-methylpropane-1,2-diol]	
1000 to 30000	1000 to 30000			COC(=O)/C=C/c1cc2nc(N3CCC(Oc4ccc(F)cc4F)CC3)c(-c3cnn(C)c3)nc2cn1 [Compound 745, methyl 3-{2-[4-(2,4-difluorophenoxy)-1-piperidyl]-3-(1-methyl-4-pyrazolyl)-1,4,6-triaza-7-naphthyl}acrylate]	
100 to 1000	≥ 30000			CC(=O)N1CCc2nc(N3CCCC(Oc4cc(F)ccc4F)C3)c(-c3cnn(C)c3)nc2C1 (centres unmarked) [Compound 339, 1-{2-[3-(2,5-difluorophenoxy)piperidin-1-yl]-3-(1-methyl-1H-pyrazol-4-yl)-5H,6H,7H,8H-pyrido[3,4-b]pyrazin-6-yl}ethan-1-one]	
		1000 to 30000	1000 to 30000	Cn1cc(-c2nc3cnccc3nc2N2CCN(CC3CCCC(F)(F)C3)CC2)cn1 (centres unmarked) [Compound 214, 1-[(3,3-difluorocyclohexyl)methyl]-4-[3-(1-methyl-1H-pyrazol-4-yl)pyrido[3,4-b]pyrazin-2-yl]piperazine]	
1000 to 30000	1000 to 30000			O=C(O)c1cc2nc(-c3cnn(CF)c3)c(N3CCN(Cc4ccc(F)cc4F)CC3)nc2cn1 [Compound 765, 3-{4-[(2,4-difluorophenyl)methyl]-1-piperazinyl}-2-[1-(fluoromethyl)-4-pyrazolyl]-1,4,6-triaza-7-naphthoic acid]	
1000 to 30000	100 to 1000			CCn1cc(-c2nc3cnc([C@@](C)(O)C(C)(C)O)cc3nc2N2CCN(Cc3ccc(F)cc3F)CC2)cn1 (single isomer, unassigned) [Compound 690]	
1000 to 30000	100 to 1000			COC(=O)[C@H]1C[C@@H]1c1cc2nc(N3CCC(Oc4ccc(F)cc4F)CC3)c(-c3cnn(C)c3)nc2cn1 (single isomer, unassigned) [Compound 733]	
1000 to 30000	1000 to 30000			CC(=O)N1CCc2nc(N3CCC(COc4cc(F)ccc4F)C3)c(-c3cnn(C)c3)nc2C1 (centres unmarked) [Compound 364, 1-(2-{3-[(2,5-difluorophenoxy)methyl]pyrrolidin-1-yl}-3-(1-methyl-1H-pyrazol-4-yl)-5H,6H,7H,8H-pyrido[3,4-b]pyrazin-6-yl)ethan-1-one]	
		1000 to 30000	1000 to 30000	CC(=O)N1CCc2nc(-c3cccc(=O)[nH]3)c(N3CCC(Oc4ccc(F)cc4F)CC3)nc2C1 [Compound 167, 6-{6-acetyl-3-[4-(2,4-difluorophenoxy)piperidin-1-yl]-5H,6H,7H,8H-pyrido[3,4-b]pyrazin-2-yl}-1,2-dihydropyridin-2-one]	
		1000 to 30000	100 to 1000	Cn1cc(-c2nc3cncc(N)c3nc2N2CCC(Oc3ccc(F)cc3F)CC2)cn1 [Compound 459, 2-[4-(2,4-difluorophenoxy)piperidin-1-yl]-3-(1-methyl-1H-pyrazol-4-yl)pyrido[3,4-b]pyrazin-8-amine]	
		1000 to 30000	1000 to 30000	C[C@@H]1CN(Cc2ccc(F)cc2F)CCN1c1nc2ccncc2nc1-c1cnn(C)c1 (single isomer, unassigned) [Compound 224]	
		1000 to 30000	1000 to 30000	CN1CCc2nc(N3CCC(Oc4ccc(F)cc4F)CC3)c(-c3cnn(C4CCCCO4)c3)nc2C1 (centres unmarked) [Compound 169, 4-(2,4-difluorophenoxy)-1-{6-methyl-3-[1-(oxan-2-yl)-1H-pyrazol-4-yl]-5H,6H,7H,8H-pyrido[3,4-b]pyrazin-2-yl}piperidine]	
